Source: patent US8906908B2, “Hydroxybupropion analogues for treating drug dependence” (priority 2010, dated 2014)
Like-named read-outs stand apart in the source and are kept apart here.

Key:
[1] = system: Male Institute of Cancer Research (ICR) mice; experiment: Body temperature, antagonism of nicotine-induced hypothermia; type: in vivo; conditions: pretreatment 15 min before nicotine 2.5 mg/kg s.c., tested 30 min after nicotine; for ED50: Mus musculus, 0.5 h, read-out: AD50 Hypothermia
Description: (§1) Animals: Male Institute of Cancer Research (ICR) mice (weighing 20-25 g) obtained from Harlan (Indianapolis, Ind.) were used throughout the study. Animals were housed in an Association for Assessment and Accreditation of Laboratory Animal Care-approved facility, were placed in groups of six, and had free access to food and water. Studies were approved by the Institutional Animal Care and Use Committee of Virginia Commonwealth University.
Body Temperature: Rectal temperature was measured by a thermistor probe (inserted 24 mm) and digital thermometer (YSI Inc., Yellow Springs, Ohio). Readings were taken just before and 30 min after subcutaneous injection of either saline or 2.5 mg/kg nicotine. The difference in rectal temperature before and after treatment was calculated for each mouse. The ambient temperature of the laboratory varied from 21 to 24° C. from day to day. […] The animals were then tested 30 min after administration of a subcutaneous dose of 2.5 mg/kg nicotine.

[2] = biological target: T1, 5HT transporters [(h)SERT] (Homo sapiens, UniProt P31645); experiment: Inhibition of [3H]serotonin uptake into HEK293 cells stably expressing hSERT; type: cell-based
T1 construct: expressed in transfected cells; host or cells: HEK-293
T1 sequence (P31645 whole entry): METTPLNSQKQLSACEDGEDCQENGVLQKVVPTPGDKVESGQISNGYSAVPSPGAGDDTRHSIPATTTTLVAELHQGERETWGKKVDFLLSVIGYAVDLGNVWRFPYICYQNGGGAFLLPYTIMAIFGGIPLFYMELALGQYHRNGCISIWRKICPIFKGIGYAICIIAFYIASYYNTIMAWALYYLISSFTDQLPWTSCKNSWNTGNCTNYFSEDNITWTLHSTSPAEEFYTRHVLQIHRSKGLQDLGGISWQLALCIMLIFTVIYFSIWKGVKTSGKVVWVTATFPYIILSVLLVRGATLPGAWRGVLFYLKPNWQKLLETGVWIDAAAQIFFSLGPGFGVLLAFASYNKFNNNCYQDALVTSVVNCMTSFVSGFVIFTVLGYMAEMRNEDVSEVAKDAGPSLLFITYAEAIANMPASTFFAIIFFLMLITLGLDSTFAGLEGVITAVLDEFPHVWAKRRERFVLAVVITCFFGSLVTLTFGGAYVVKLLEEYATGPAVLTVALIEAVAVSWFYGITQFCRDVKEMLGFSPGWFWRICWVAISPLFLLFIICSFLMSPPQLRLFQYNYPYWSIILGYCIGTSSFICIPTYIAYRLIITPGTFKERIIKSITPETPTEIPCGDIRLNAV
Excerpt: (§2) Cell Lines and Culture: Human embryonic kidney (HEK-293) cells stably expressing human DAT, NET or SERT were maintained as previously described in Eshleman, A. J.; Carmolli, M.; Cumbay, M.; Martens, C. R.; Neve, K. A.; Janowsky, A., J. Pharmacol. Exp. Ther. 1999, 289, (2), 877-885. Use was made of several human cell lines that naturally or heterologously express specific, functional, human nAChR subtypes. Cells of the TE671/RD line naturally expresses muscle-type nAChR (a1β1γδ- or α1*-nAChR), and SH-SY5Y neuroblastoma cells naturally expresses autonomic α3β4*-nAChRs (containing α3, β4, probably α5, and sometimes β2 subunits). Different clones of SH-EP1 epithelial cell lines have been engineered to heterologously express either α4β2-nAChR, which are thought to be the most abundant, high affinity nicotine-binding nAChR in mammalian brain, or α4β4-nAChR, another possible brain nAChR subtype (SH-EP1-hα4β2 or α4β4 cells, respectively). These cells were maintained as low passage number (1-26 from our frozen stocks) cultures to ensure stable expression of native or heterologously-expressed nAChR as previously described (see Lukas, R. J.; Fryer, J. D.; Eaton, J. B.; L., G. C., Some methods for studies of nicotinic acetylcholine receptor pharmacology, in Nicotinic receptors and the Nervous System, Levine, E. D., Ed. CRC Press: Boca Raton, 2002; pp 3-27, incorporated herein by reference in its entirety). Cells were passaged once weekly by splitting just-confluent cultures 1/300 (TE671/RD), 1/5 (SH-SY5Y), or 1/20 (transfected SH-EP1) in serum-supplemented medium to maintain log-phase growth.
(§3) See, for example, Damaj, M. I.; Carroll, F. I.; Eaton, J. B.; Navarro, H. A.; Blough, B. E.; Mirza, S.; Lukas, R. J.; Martin, B. R., Mol. Pharmacol. 2004, 66, (3), 675-682 and Eshleman, A. J.; Carmolli, M.; Cumbay, M.; Martens, C. R.; Neve, K. A.; Janowsky, A., J. Pharmacol. Exp. Ther. 1999, 289, (2), 877-885, both incorporated by reference herein in their entireties.

[3] = system: Male Institute of Cancer Research (ICR) mice; experiment: Tail-flick test, blockade of nicotine-induced antinociception; type: in vivo; conditions: for ED50: Mus musculus, 5 min, read-out: AD50 Tail-flick; for ED50 / AD50 Tail-flick: mice, pretreatment 15 min before nicotine 2.5 mg/kg s.c., tested 5 min after nicotine; for activity in the tail-flick assay relative to (2S,3S)-4a: higher activity than (2S,3S)-4a
Excerpt: as §1
Tail-Flick Test: Antinociception for pain mediated at the spinal level was assessed by the tail-flick method of D'Amour, F. E.; Smith, D. L., J. Pharmacol. Exp. Ther. 1941, 72, 74-79, incorporated herein by reference in its entirety. In brief, mice were lightly restrained while a radiant heat source was shone onto the upper portion of the tail. To minimize tissue damage, a maximum latency of 10 s was imposed. Latency to remove the tail from the heat source was recorded for each animal. […] Antinociceptive response was calculated as the percentage of maximum possible effect (% MPE), where % MPE=[(test control)/(10 control)]×100.

[4] = biological target: T2, human DA transporters [(h)DAT] (Homo sapiens, UniProt Q01959); experiment: Inhibition of [3H]dopamine uptake into HEK293 cells stably expressing hDAT; type: cell-based
T2 construct: expressed in transfected cells; host or cells: HEK-293
T2 sequence (Q01959 whole entry): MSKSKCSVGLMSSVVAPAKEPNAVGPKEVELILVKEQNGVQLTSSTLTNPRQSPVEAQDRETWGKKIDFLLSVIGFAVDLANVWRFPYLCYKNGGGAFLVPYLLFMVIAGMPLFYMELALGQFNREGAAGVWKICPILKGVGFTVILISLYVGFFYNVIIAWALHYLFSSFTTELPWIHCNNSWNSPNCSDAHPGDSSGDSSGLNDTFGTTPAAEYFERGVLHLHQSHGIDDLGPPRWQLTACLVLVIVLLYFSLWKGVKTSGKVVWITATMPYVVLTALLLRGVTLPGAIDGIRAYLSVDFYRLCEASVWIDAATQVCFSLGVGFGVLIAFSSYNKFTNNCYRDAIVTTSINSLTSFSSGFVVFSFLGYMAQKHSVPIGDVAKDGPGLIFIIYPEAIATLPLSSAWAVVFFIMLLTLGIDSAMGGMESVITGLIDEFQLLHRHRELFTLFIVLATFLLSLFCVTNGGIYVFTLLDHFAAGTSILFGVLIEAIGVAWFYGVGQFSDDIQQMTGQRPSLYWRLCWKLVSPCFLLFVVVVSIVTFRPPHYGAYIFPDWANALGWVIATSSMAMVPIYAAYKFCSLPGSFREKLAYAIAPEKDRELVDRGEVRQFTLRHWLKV
Excerpt: as §2, §3

[5] = system: Male Institute of Cancer Research (ICR) mice; experiment: Hot-plate test, blockade of nicotine-induced antinociception; type: in vivo; conditions: pretreatment 15 min before nicotine 2.5 mg/kg s.c., tested 5 min after nicotine; for ED50: Mus musculus, read-out: AD50 Hot-plate
Excerpt: as §1
Hot-Plate Test: Mice were placed into a 10-cm wide glass cylinder on a hot plate (Thermojust Apparatus) maintained at 55° C. for assessment of pain responses mediated at supraspinal levels. To minimize tissue damage, a maximum exposure to the hot plate 40 s was imposed. Measures of control latencies (time until the animal jumped or licked its paws; typically 8-12 s) were done twice for stimuli applied at least 10 min apart for each mouse. Antinociceptive responses after test drug administrations were determined and calculated as the % MPE, where % MPE=[(test latency in s−control latency in s)/(40 s−control latency in s)×100]. Groups of 8 to 12 animals were used for each drug condition. […] The animals were then tested 5 min after administration of a subcutaneous dose of 2.5 mg/kg nicotine.

[6] = HEK293-hSERT, mean ± standard error of three independent experiments, read-out: monoamine uptake inhibition IC50 [3H]5HT
[7] = HEK293-hDAT, mean ± standard error of three independent experiments, read-out: monoamine uptake inhibition IC50 [3H]DA
[8] = read-out: monoamine uptake inhibition IC50 [3H]5HT

Row | Compound | ED50 [1] [mg/kg] | IC50 [2, 6] [µM] | ED50 [3] [mg/kg] | IC50 [4, 7] [µM] | AD50 Hot-plate [5] | AD50 Hypothermia [1] | ED50 [5] [mg/kg] | IC50 [2, 8] [µM] | activity in the tail-flick assay relative to (2S,3S)-4a [3] [fold] | IC50 [2] [µM] | IC50 [4] [µM] | selectivity for inhibition of DA uptake over α4β2-nAChR [4] [fold] | AD50 Tail-flick [3]
1 | Cc1cccc([C@]2(O)OCC(C)(C)N[C@H]2C)c1 [Compound 4e, (2S,3S)-2-(m-Tolyl)-3,5,5-trimethylmorpholin-2-ol] | 2.3 to 7 | > 10 | 0.054 | 2.6 ± 0.4 |  |  |  |  |  |  |  |  | 
2 | Cc1ccc([C@]2(O)OCC(C)(C)N[C@H]2C)cc1 [Compound 4j, (2S,3S)-3,5,5-Trimethyl-2-(4-methylphenyl)morpholin-2-ol] |  | > 10 | 0.004 | 0.832 ± 0.26 | IA (IA: AD50 > 15 mg/kg) | IA (IA: AD50 > 15 mg/kg) |  |  |  |  |  |  | 
3 | CC[C@@H]1NC(C)(C)CO[C@@]1(O)c1cccc(Cl)c1 [Compound 4s, (2S,3S)-2-(3-Chlorophenyl)-3-ethyl-5,5-dimethylmorpholin-2-ol] |  |  | 0.004 | 0.204 ± 0.023 |  |  | 3.7 to 8.6 | 2.5 ± 0.54 |  |  |  |  | 
4 | C[C@@H]1NC(C)(C)CO[C@@]1(O)c1ccc(F)cc1 [Compound 4h, (2S,3S)-2-(4-Fluorophenyl)-3,5,5-trimethylmorpholin-2-ol] |  | > 10 | 0.012 to 0.013 | 4.2 ± 0.7 | IA (IA: AD50 > 15 mg/kg) |  |  |  |  |  |  |  | 
5 | C[C@@H]1NC(C)(C)CO[C@@]1(O)c1cccc2ccccc12 [Compound 4q, (2S,3S)-2-(Naphthalen-1-yl)-3,5,5-trimethylmorpholin-2-ol] |  |  | 0.034 | 10 | IA (IA: AD50 > 15 mg/kg) | IA (IA: AD50 > 15 mg/kg) |  | 1.56 ± 0.215 | ~5 |  |  |  | 
6 | C[C@@H]1NC(C)(C)CO[C@@]1(O)c1ccc(Cl)cc1 [Compound 4i, (2S,3S)-2-(4-Chlorophenyl)-3,5,5-trimethylmorpholin-2-ol] |  | 4.6 ± 0.9 | 0.019 | 0.285 | IA (IA: AD50 > 15 mg/kg) | IA (IA: AD50 > 15 mg/kg) |  |  |  |  |  |  | 
7 | C[C@@H]1N(C)C(C)(C)CO[C@@]1(O)c1ccc(Cl)cc1 [Compound 4v, (2S,3S)-2-(4-Chlorophenyl)-3,4,5,5-tetramethylmorpholin-2-ol] |  | 6.48 ± 1.28 | 0.32 | 2.87 ± 0.82 | IA (IA: AD50 > 15 mg/kg) | IA (IA: AD50 > 15 mg/kg) |  |  |  |  |  |  | 
8 | C[C@@H]1NC(C)(C)CO[C@@]1(O)c1ccc(-c2ccccc2)cc1 [Compound 4l, (2S,3S)-2-Biphenyl-4-yl-3,5,5-trimethylmorpholin-2-ol] |  |  | 0.021 |  | IA (IA: AD50 > 15 mg/kg) | IA (IA: AD50 > 15 mg/kg) |  |  |  | > 10 | > 10 |  | 
9 | COc1ccc([C@]2(O)OCC(C)(C)N[C@H]2C)cc1 [Compound 4k, (2S,3S)-2-(4-Methoxyphenyl)-3,5,5-trimethylmorpholin-2-ol] |  |  | 0.019 | > 10 | IA (IA: AD50 > 15 mg/kg) | IA (IA: AD50 > 15 mg/kg) |  |  |  | > 10 |  |  | 
10 | C[C@@H]1NC(C)(C)CO[C@@]1(O)c1cccc(F)c1 [Compound 4c, (2S,3S)-2-(3-Fluorophenyl)-3,5,5-trimethylmorpholin-2-ol] | 2.3 to 7 |  | 0.012 to 0.013 | 1.38 ± 0.36 |  |  |  |  |  | > 10 |  |  | 
11 | CC1NC(C)(C)COC1(O)c1ccc(Cl)c(Cl)c1 (racemic) [Compound 4n, 2-(3,4-Dichlorophenyl)-3,5,5-trimethylmorpholin-2-ol] |  |  | 8.8 |  | IA (IA: AD50 > 15 mg/kg) | IA (IA: AD50 > 15 mg/kg) |  |  |  | 0.36 | 0.07 | > 285 | 
12 | C[C@@H]1NC(C)(C)CO[C@@]1(O)c1cc(F)cc(F)c1 [Compound 4o, (2S,3S)-2-(3,5-Difluorophenyl)-3,5,5-trimethylmorpholin-2-ol] |  | > 10 | 0.0056 | 1.02 ± 0.19 | IA (IA: AD50 > 15 mg/kg) | IA (IA: AD50 > 15 mg/kg) |  |  |  |  |  |  | ~0.006 mg/kg
13 | C[C@@H]1NC(C)(C)CO[C@@]1(O)c1ccc2ccccc2c1 [Compound 4r, (2S,3S)-2-(Naphthalen-2-yl)-3,5,5-trimethylmorpholin-2-ol] |  |  | 0.04 | 0.453 | IA (IA: AD50 > 15 mg/kg) | IA (IA: AD50 > 15 mg/kg) |  | 0.334 ± 0.042 | ~5 |  |  |  | 
14 | C[C@@H]1NC(C)(C)CO[C@@]1(O)c1cccc(Br)c1 [Compound 4d, (2S,3S)-2-(3-Bromophenyl)-3,5,5-trimethylmorpholin-2-ol] | 1.7 |  | 0.16 | 3.34 ± 0.68 |  |  | 3.7 to 8.6 |  |  | > 10 |  |  | 
15 | COc1cccc([C@]2(O)OCC(C)(C)N[C@H]2C)c1 [Compound 4f, (2S,3S)-2-(3-Methoxyphenyl)-3,5,5-trimethylmorpholin-2-ol] |  | > 10 | 5.85 | 16 | IA (IA: AD50 > 15 mg/kg) | IA (IA: AD50 > 15 mg/kg) |  |  |  |  |  |  | 
16 | C[C@@H]1N(C)C(C)(C)CO[C@@]1(O)c1cccc(Cl)c1 [Compound 4u, (2S,3S)-2-(3-Chlorophenyl)-3,4,5,5-tetramethylmorpholin-2-ol] |  | > 10 | 0.016 | 3.4 ± 0.6 | IA (IA: AD50 > 15 mg/kg) | IA (IA: AD50 > 15 mg/kg) |  |  |  |  |  |  | 
17 | C[C@@H]1NC(C)(C)CO[C@@]1(O)c1ccccc1 [Compound 4b, (2S,3S)-2-Phenyl-3,5,5-trimethylmorpholin-2-ol] |  | > 10 |  | 1.06 ± 0.03 | IA (IA: AD50 > 15 mg/kg) | IA (IA: AD50 > 15 mg/kg) |  |  |  |  |  |  | IA (IA: AD50 > 15 mg/kg)
18 | C[C@@H]1NC(C)(C)CO[C@@]1(O)c1cccc([N+](=O)[O-])c1 [Compound 4g, (2S,3S)-2-(3-Nitrophenyl)-3,5,5-trimethylmorpholin-2-ol] |  | > 10 | 4.9 | 12 | IA (IA: AD50 > 15 mg/kg) |  |  |  |  |  |  |  | 
